Read-outs that look alike come from different tables or passages of the source.
What was measured:
[1] = biological target: T1, recombinant human Lp-PLA2 (Homo sapiens, UniProt Q13093); assay: Recombinant human Lp-PLA2 assay (rhLp-PLA2, PED6 assay); format: biochemical
T1 sequence (Q13093 22-441): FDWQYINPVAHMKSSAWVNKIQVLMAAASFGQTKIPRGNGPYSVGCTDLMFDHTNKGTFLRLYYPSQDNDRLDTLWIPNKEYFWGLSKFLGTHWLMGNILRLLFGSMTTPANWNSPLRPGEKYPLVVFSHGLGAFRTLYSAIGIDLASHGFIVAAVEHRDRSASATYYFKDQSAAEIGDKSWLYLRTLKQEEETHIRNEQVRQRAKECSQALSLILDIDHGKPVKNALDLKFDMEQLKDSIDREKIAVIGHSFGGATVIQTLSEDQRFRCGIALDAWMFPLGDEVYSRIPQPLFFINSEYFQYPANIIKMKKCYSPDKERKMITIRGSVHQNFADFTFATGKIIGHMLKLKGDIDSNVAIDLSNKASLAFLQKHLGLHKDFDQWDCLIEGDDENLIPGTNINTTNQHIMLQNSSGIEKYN
Outline: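 Enzyme (4 nM or 110 pM, as stated for the 5 μL addition) preincubated 30 min with compound in 50 mM HEPES pH 7.4, 150 mM NaCl, 1 mM CHAPS, then PED6 substrate (4 or 5 μM in the addition) added. Fluorescence (ex 480/em 540) read after 20 min, room temperature; pIC50 from curve fitting.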

Lp-PLA2 in human plasma = biological target: T2, Lp-PLA2 in human plasma (Homo sapiens, UniProt Q13093); assay: Lp-PLA2 human plasma assay (Thio-PAF assay); format: biochemical; conditions: pooled human plasma; read-out: pIC50 values in the thio-PAF assay (converted)
T2 construct: from tissue; host or cells: pooled human plasma
T2 sequence (Q13093 22-441): T1 sequence (Q13093 22-441)
Outline: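 Pooled human plasma preincubated 30 min with compound, then 2-thio-PAF substrate added with CPM and NEM in 50 mM HEPES pH 7.4, 150 mM NaCl, 1 mM CHAPS. Quenched with TFA after 2 min, incubated 40 min at room temperature, and read by fluorescence at ex 380/em 485 nm. Values given as pIC50.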

[2] = read-out: pIC50 values in the recombinant human Lp-PLA2 assay (converted)
[3] = read-out: rhLp-PLA2 (PED6 assay) (pIC50) (converted)

SMILES	IC50 [1, 2] [nM]	IC50 [1, 3] [nM]	IC50 (Lp-PLA2 in human plasma) [nM]
C[C@@H]1CCn2c(cc(OCc3ccc(Oc4cnc(C(F)(F)F)nc4)c(F)c3)nc2=O)N1C [E110, (R)-8-((3-fluoro-4-((2-(trifluoromethyl)pyrimidin-5-yl)oxy)benzyl)oxy)-1,2-dimethyl-3,4-dihydro-1H-pyrimido[1,6-a]pyrimidin-6(2H)-one]	≤ 1	0.631	≤ 100
C[C@@H]1CCn2c(cc(OCc3cc(F)c(Oc4ccc(F)c(Cl)c4)c(F)c3)nc2=O)N1C [E109]	≤ 1		≤ 10
C[C@H]1CCn2c(cc(OCc3ccc(Oc4ccc(F)c(Cl)c4)c(C#N)c3)nc2=O)N1C [E85, (S)-2-(3-chloro-4-fluorophenoxy)-5-(((1,2-dimethyl-6-oxo-2,3,4,6-tetrahydro-1H-pyrimido[1,6-a]pyrimidin-8-yl)oxy)methyl)benzonitrile]	≤ 1		≤ 10
CN1c2cc(OCc3ccc(Oc4ccc(F)cc4)c(C#N)c3)nc(=O)n2CCC1(C)C [E118, 2-(4-fluorophenoxy)-5-(((1,2,2-trimethyl-6-oxo-2,3,4,6-tetrahydro-1H-pyrimido[1,6-a]pyrimidin-8-yl)oxy)methyl)benzonitrile]	≤ 1		≤ 100
C[C@H]1CCn2c(cc(OCc3cc(F)c(Oc4ccc(C(F)(F)F)nc4)c(F)c3)nc2=O)N1C [E46, (S)-8-((3,5-difluoro-4-((6-(trifluoromethyl)pyridin-3-yl)oxy)benzyl)oxy)-1,2-dimethyl-3,4-dihydro-1H-pyrimido[1,6-a]pyrimidin-6(2H)-one]	≤ 1	0.126	≤ 10
C[C@@H]1CCn2c(cc(OCc3cc(F)c(Oc4ccc(F)c(F)c4)c(F)c3)nc2=O)N1C [E101, (R)-8-((4-(3,4-difluorophenoxy)-3,5-difluorobenzyl)oxy)-1,2-dimethyl-3,4-dihydro-1H-pyrimido[1,6-a]pyrimidin-6(2H)-one]	≤ 1		≤ 10
C[C@H]1CCn2c(cc(OCc3cc(F)c(Oc4cccc(C(F)(F)F)c4)c(F)c3)nc2=O)N1C [E62, (S)-8-((3,5-difluoro-4-(3-(trifluoromethyl)phenoxy)benzyl)oxy)-1,2-dimethyl-3,4-dihydro-1H-pyrimido[1,6-a]pyrimidin-6(2H)-one]		3.98	≤ 10
CN1c2cc(OCc3cc(F)c(Oc4ccc(C(F)(F)F)nc4)c(F)c3)nc(=O)n2CCC1(C)C [E88, 8-((3,5-difluoro-4-((6-(trifluoromethyl)pyridin-3-yl)oxy)benzyl)oxy)-1,2,2-trimethyl-3,4-dihydro-1H-pyrimido[1,6-a]pyrimidin-6(2H)-one]	≤ 1		≤ 100

Results, then the compound that gave them:

IC50 [1, 2] [nM]	IC50 [1, 3] [nM]	IC50 (Lp-PLA2 in human plasma) [nM]	SMILES
≤ 1		≤ 10	C[C@H]1CCn2c(cc(OCc3ccc(Oc4ccc(C(F)(F)F)nc4)c(F)c3)nc2=O)N1C [E142, (S)-8-((3-fluoro-4-((6-(trifluoromethyl)pyridin-3-yl)oxy)benzyl)oxy)-1,2-dimethyl-3,4-dihydro-1H-pyrimido[1,6-a]pyrimidin-6(2H)-one]
≤ 1		≤ 100	C[C@@H]1CCn2c(cc(OCc3ccc(Oc4ccc(C(F)(F)F)cc4)c(F)c3)nc2=O)N1C [E121, (R)-8-((3-fluoro-4-(4-(trifluoromethyl)phenoxy)benzyl)oxy)-1,2-dimethyl-3,4-dihydro-1H-pyrimido[1,6-a]pyrimidin-6(2H)-one]
≤ 1	0.0251	≤ 10	C[C@@H]1CCn2c(cc(OCc3cc(F)c(Oc4ccnc(C(F)(F)F)c4)c(F)c3)nc2=O)N1C [E144, (R)-8-((3,5-difluoro-4-((2-(trifluoromethyl)pyridin-4-yl)oxy)benzyl)oxy)-1,2-dimethyl-3,4-dihydro-1H-pyrimido[1,6-a]pyrimidin-6(2H)-one]
≤ 1		≤ 10	C[C@@H]1CCn2c(cc(OCc3ccc(Oc4ccc(Cl)c(C(F)(F)F)c4)c(F)c3)nc2=O)N1C [E143]

From patent US20150344485A1, “BICYCLIC PYRIMIDONE COMPOUNDS AS INHIBITORS OF LP-PLA2” (GLAXOSMITHKLINE INTELLECTUAL PROPERTY DEVELOPMENT LIMITED, priority 2013, published 2015)
